Nc1cc(Cl)ccc1[N+](=O)[O-]
solubility (mole fraction)
Conditions | 283.15 K | 288.15 K | 293.15 K | 298.15 K | 303.15 K | 308.15 K | 313.15 K | 318.15 K | 323.15 K
in 2-butanone | 0.141 | 0.149 | 0.164 | 0.173 | 0.187 | 0.203 | 0.218 | 0.234 | 0.252
in acetone | 0.126 | 0.141 | 0.152 | 0.165 | 0.183 | 0.2 | 0.219 | 0.242 | 0.262
in acetonitrile | 0.0303 | 0.036 | 0.0428 | 0.0519 | 0.0633 | 0.0751 | 0.0945 | 0.11 | 0.135
in ethanol | 0.0164 | 0.0184 | 0.0215 | 0.0243 | 0.0273 | 0.0317 | 0.0373 | 0.0441 | 0.0497
in ethyl acetate | 0.0983 | 0.107 | 0.117 | 0.133 | 0.144 | 0.158 | 0.174 | 0.193 | 0.24
in isobutanol | 0.0116 | 0.0129 | 0.0154 | 0.0185 | 0.0219 | 0.0259 | 0.0308 | 0.0361 | 0.0444
in isopropanol | 0.0146 | 0.017 | 0.0197 | 0.0232 | 0.0267 | 0.0321 | 0.0372 | 0.0451 | 0.0539
in methanol | 0.0104 | 0.0122 | 0.0142 | 0.0164 | 0.019 | 0.0235 | 0.027 | 0.0326 | 0.0374
in methyl acetate | 0.101 | 0.108 | 0.12 | 0.133 | 0.147 | 0.162 | 0.178 | 0.192 | 0.214
in n-butanol | 0.0182 | 0.0209 | 0.0246 | 0.0283 | 0.0311 | 0.0358 | 0.0426 | 0.0481 | 0.0553
in n-propanol | 0.0161 | 0.0184 | 0.0214 | 0.0246 | 0.0284 | 0.0315 | 0.0373 | 0.0452 | 0.0517
in water | 5.45e-06 | 9.54e-06 | 1.22e-05 | 1.77e-05 | 2.18e-05 | 2.73e-05 | 3.53e-05 | 4.25e-05 | 4.78e-05

Source: BigSolDB 2.1
